In article PMC9782626, “Copper(II) Complexes of 5–Fluoro–Salicylaldehyde: Synthesis, Characterization, Antioxidant Properties, Interaction with DNA and Serum Albumins” (Molecules, 2022):

Test: Reduction of hydrogen peroxide
Assay type: biochemical
Details: compound 0.1 mM, 10 min, pH 7.4
Source text: For the above reasons, the antioxidant ability of 5–F–saloH and Cu(II) complexes 1–5 has been evaluated via their scavenging activity towards DPPH and ABTS radicals, as well as the ability to reduce H2O2, and in comparison with that of well-known antioxidant agents such as nordihydroguaiaretic acid (NDGA), butylated hydroxytoluene (ΒHΤ), 6–hydroxy–2,5,7,8–tetramethylchromane–2–carboxylic acid (trolox) and L–ascorbic acid (these are the most commonly used standard reference antioxidant agents). The DPPH-radical assay was developed in the 1950s and this method has been used to assess the antioxidant capacity of several metal complexes. The DPPH–scavenging ability of compounds has often been related to their ability to prevent ageing, cancer and inflammation. The ability of a compound to scavenge the cationic ABTS radicals (ABTS^+●) has been considered a measure of its total antioxidant activity. Further, hydrogen peroxide has the ability to penetrate biological membranes and, although it is not very reactive itself, it can sometimes be toxic since it may give rise to hydroxyl radicals in cells. For this reason, the removal of H2O2 is very important for the protection of living systems. When a compound is incubated with H2O2 using a peroxidase assay system, the loss of H2O2 can be measured.
S1 Antioxidant activity assay
The antioxidant activity of the compounds was evaluated via their ability to scavenge in vitro free radicals such as DPPH and ABTS and to reduce H 2O2. All the experiments were carried out at least in triplicate and the standard deviation of absorbance was less than 10% of the mean.
S1.1 Determination of the reducing activity of the radical DPPH […]
S1.3 Reduction of hydrogen peroxide
The ability of the com pounds to reduce hydrogen peroxide (H2O2) was est imated according to the method descr ibed in the literature [S2]. The reaction mixture contained 20 μL of each of the tested compounds (0.1 mM) and 5 μL H2O 2 solution (40 mM) in phosphate buffer (50 mM, pH = 7.4). The absorbance was measure d at 230 nm after 10 min.
The antioxidant activity (reduction of hydrogen peroxide) of the compounds wa s […]
expressed as the percentage decrease of t he init ial H 2O2 solution (H 2O2%). L-ascor b ic ac id (or vitamin C) was use d as a standard. […]
[DNA] = [DNA] + 1 (eq. S1) […]
where [DNA] is the concentration of DNA in base pa irs, εA = Aobsd/[compound ], εf = the extinction coefficient for the free compound and ε b = the extinction coefficient for the compound in the fully bound form. Kb is given by the ratio of slope to the y intercept in plots [DNA]/(εA-εf) versus[DNA].
S2.2CT DNA -binding studie s by viscosity measurements
The interaction of compounds with DNA has been evaluated via the study of the CT DNA viscosity ([DNA] = 0.1 mΜ) in a buffer solution (150 mM NaCl and 15 mM trisodium citrate at pH 7.0) in the presence of increasing amount of complexes (up to the value of r = 0.36). The obtained data are presented as (η/η 0)1/3 versus r, where η is the viscosity of DNA in the presence of the compound, and η0 is the viscosity of DNA alone in buffer solution.
S2.3 EB -displa cement studie s
The competition of the complexes with EB was investigated by fluorescence emission spectroscopy in order to examine whether the compounds can displace EB from its DNA-EB conjugate. The CT DNA-EB complex was formed by pre-treating 20 μM EB and 26 μM CT DNA in buffer (150 mM NaCl and 15 mM trisodium citrate at pH = 7.0).
The possible displacement of EB by the compounds and su bseq uently t he ir intercalating effect was studied by the stepwise addition of a certain amount of the solution of each

O=Cc1cc(F)ccc1[O-].O=Cc1cc(F)ccc1[O-].[Cu+2] [Complex 1, [Cu(5–F–salo)2]]
H2O2%, H2O2–reducing activity: 71.61 ± 0.35%

O=Cc1cc(F)ccc1[O-].[Cl-].[Cu+2].c1ccc(Nc2ccccn2)nc1 [Complex 2, [Cu(5–F–salo)(bipyam)Cl]]
H2O2%, H2O2–reducing activity: 99.69 ± 0.29%

CO.Cc1ccc2ccc3ccc(C)nc3c2n1.O=Cc1cc(F)ccc1[O-].[Cl-].[Cu+2] [Complex 3, [Cu(5–F–salo)(neoc)Cl].CH3OH]
H2O2%, H2O2–reducing activity: 26.10 ± 0.66%

O=Cc1cc(F)ccc1[O-].O=[N+]([O-])[O-].[Cu+2].c1cnc2c(c1)ccc1cccnc12 [Complex 4, [Cu(5–F–salo)(phen)(NO3)]]
H2O2%, H2O2–reducing activity: 25.90 ± 0.76%

O=Cc1cc(F)ccc1[O-].O=[N+]([O-])[O-].[Cu+2].c1ccc(-c2ccccn2)nc1 [Complex 5, [Cu(5–F–salo)(bipy)(NO3)]]
H2O2%, H2O2–reducing activity: 69.21 ± 1.10%
